Assay results published in EP0362382A1, “METHOD OF STERILIZING PLANT POLLEN” (VSESOJUZNY NAUCHNO-ISSLEDOVATELSKY INST. SELSKOKHOZYAISTV. …, priority 1988, dated 1989).

Legend:
diploidem Roggen = experiment: Field test of gametocidal activity (sterilisation of anthers), diploid rye; assay type: in vivo; settings: 1%ige wäßrige Emulsion
Excerpt: (§1) Die gametozide Aktivitat der erfindungsgemäßen Sterilisationsmittel war im Feldversuch in verschiedenen bodenklimatischen Zonen mit Teilstücken von 10 m^2 Größe in drei- bis viermaliger Wiederholung festgestellt. Jedes Sterilisationsmittel wurde mindenstens 5 Jahre lang geprüft.
(§2) Die Entwicklung der Perioden der Organogenese wird zytologisch überwacht. Die Behandlung von Pflanzen mit dem Sterilisationsmittel erfolgt am Anfang der fünften Periode der Organogenese nach Kupermann.
(§3) Mit dem Ährenschieben verwirklicht man die Isolierung von Hauptähren und anderen Stockwerken in Pergamentbeuteln. Bei Weizen und Tritikale werden Einzelisolatoren benutzt. Bei Roggen schließt man je Ähre 5 bis 7 verschiedene nebeneinander befindliche Pflanzen unter einen gemeinsamen Isolator ein. Bei Hierse wird jede Rispe getrennt isoliert. Der Sterilitätsprozentsatz (X) für Weizen, Roggen, Tritikale und Hirse wird nach der Formel [formula] ermittelt.
(§4) Die Kornzahl in nicht isolierten Ähren von Kontrollpflanzen wird bedingt für 100 % Ansetzen bei freier Bestäubung angenommen.
(§5) Um zuverlässige Angaben zu erhalten, verwendet man 20 bis 25 Isolatoren jeder Wiederholung für Weizen und Tritikale, 10 .bis 15 Isolatoren jeder Wiederholung für Roggen und Hirse.
Pflanzen von diploidem Roggen Sorte Wosohod 2 werden in der V. Periode der Organogenese (nach Kupermann) mit 1%iger wäßriger Emulsion von Bis(di-n-butyläther) der δ, δ' -Thiodivaleriansäure, 4-Krboxybutyldezylsulfid, Natriumsalz der δ, δ' -Thiodivaleriansäure, Bis(2-äthylhexyläther) der δ, δ' -Thiodivaleriansäure, δ, δ' -Sulfonyldivaleriansäure, Natriumsalz der δ, δ'-Sulfonyldivaleriansäure, Kaliumsalz der δ, δ' -Sulfonyldivaleriansäure behandelt. Die Emulsion enthält 0,1 Masse% […] mit 12 bis 14 Kohlenstoffatomen und 0,01 Masse% Tetrahydrofuran. Der Verbrauch an Präparat beträgt 6 kg/ha. Als Kontrolle dienen Pflanzen, behandelt mit einem Verdünner ohne Sterilisationsmittel.
Pflanzen von diploidem Roggen Sorte Gibrid 1861/79 werden in der V. und VI. Periode der Organogenese (nach Kupermann) mit 1%iger wäßriger Emulsion von Bis(di-n-butyläther) der δ, δ' -Thiodivaleriansäure, δ, δ' -Thiodivaleriansäure, Natriumsalz der δ δ' -Thiodivaleriansäure, 4-Karboxybutyldezylsulfid, δ , δ' -Sulfonyldivaleriansäure, Kaliumsalz der δ, δ' -Sulfonyldivaleriansäuleriansäure, Kaliumalz der δ' -Sulfonyldivaleriansäure, Bis(2-äthylhexyläther) der δ, δ' -Thiodivaleriansäure behandelt. Die Emulsion enthält 0,1 Masse% Kalziumalkylbenzolsulfonat mit 12 bis 14 Kohlenstoffatomen und 0,01 Masse% Dimethylformamid. Der Verbrauch an Präparat beträgt 8 kg/ha. Als Kontrolle dienen Pflanzen, behandelt mit einem Verdünner ohne Sterilisationsmittel. Die Prüfergebnisse sind in der Tabelle 10 angegeben.

Winterweizen = experiment: Field test of gametocidal activity (sterilisation of anthers), winter wheat; assay type: in vivo; settings: V. Periode der Organogenese, 2%ige wäßrige Emulsion
Excerpt: as §1, §2, §3, §4, §5
Pflanzen des Winterweizens Sorte Mironowskaja 808 werden in der V. Periode der Organogenese durch Zerstäubung der 2%igen wäßrigen Emulsion der δ, δ' -Thiodivaleriansäure mit Hilfe einer Rückenspritze behandelt. Als Emulgiermittel wird 0,1 Masse% Kalziumalkylbenzalsulfonat mit 12 bis 14 Kohlenstoffatomen hinzugefügt. Als Adjuvans führt man in die Emulsion 0,01 Masse% Dimethylsulfoxid ein. Der Verbrauch an Präparat beträgt 20 kg/ha. Als Kontrolle dienen Pflanzen, behandelt mit einem Verdünner ohne Sterilisationsmittel. Die Ergebnisse sind in der Tabelle 1 angegeben. […] Periode der Organogenese erhalten.
Der Prozeß erfolgt analog zu dem im Beispiel 1 bescnriebenen. Als Sterilisationsmittel benutzt man 2%ige wäßrige Emulsion von Natriumsalz der δ, δ'-Thiodivaleriansäure, δ, δ' -Sulfonyldivaleriansäure, Natriumsalz der δ, δ' -Sulfonyldivaleriansäure, Kaliumsalz der δ, δ'--Sulfonyldivaleriansäure, Bis(di-n-butyläther) der δ, δ'--Thiodivaleriansäure, 4-Karboxybutyldezylsulfid bzw.
Pflanzen des Winterweizens Sorte Korall werden in der V. Periode der Organogenese (nach Kupermann) mit 2%iger wäßriger Emulsion von Bis(2-äthylhexyläther) der δ, δ' --Thiodivaleriansäure, 4-Karboxybutyldezylsulfid bzw. Bis(di--n-butyläther) der δ, δ' -Thiodivalerianqäure behandelt. Die Emulsion enthält 0,1 Masse% Kalziumalkylbenzolsulfonat mit 12 bis 14 Kohlenstoffatomen und 0,01 Masse% Dodezylsulfat. Der Verbrauch an Präparat beträgt 12 kg/ha. Als Kontrolle dienen Pflanzen, behandelt mit einem Verdünner ohne Sterilisationsmittel. Die Prüfergebnisse sind in der Tabelle 2 angegeben.
Pflanzen des Winterweizens Gordeiforme 12303 werden in der V. Periode der Organogenese (nach Kupermann) mit 2%iger wäßriger Emulsion von 4-Karboxybutyldezylsulfid, Bis(2-äthylhexyläther) der δ, δ' -Thiodivaleriansäure, δ, δ' -Sulfonyldivaleriansäure behandelt. Die Emulsion enthält als Emulgiermittel 0,1 Masse% Kalziumalkylbenzolsulfonat mit 12 bis 14 Kohlenstoffatomen und 0,01 Masse% Dimethylformamid. Der Verbrauch an Präparat beträgt 16 kg/ha. Als Kontrolle dienen Pflanzen, behandelt mit einem Verdünner ohne Sterilisationsmittel.

[1] = Sorte Gibrid 1861/79, V. und VI. Periode der Organogenese, 8 kg/ha
[2] = Sorte Wosohod 2, V. Periode der Organogenese, 6 kg/ha
[3] = Sorte Mironowskaja 808, 20 kg/ha

Question: Which “Anzahl von Körnern der Ähre bei freier Bestäubung” value (diploidem Roggen; [1]) does the source give for O=C(O)CCCCS(=O)(=O)CCCCC(=O)O [Beispiel 48, δ , δ' -Sulfonyldivaleriansäure] here?
Answer: Its value is 54,7.

Question: And the “Anzahl von Körnern der Ähre im Isolator” value (diploidem Roggen; [1])?
Answer: The value was 0,0.

Question: And the “Prozentsatz der Sterilität” value (diploidem Roggen; [1])?
Answer: Its value is 100,0%.

Question: And the “Prozentsatz des Ansetzens von Körnern bei freier Bestäubung” value (diploidem Roggen; [1])?
Answer: The value was 87,1%.

Question: O=C(O)CCCCS(=O)(=O)CCCCC(=O)O [Beispiel 49, Kaliumsalz der δ, δ' -Sulfonyldivaleriansäuleriansäure] was tested. Which “Anzahl von Körnern der Ähre bei freier Bestäubung” value (diploidem Roggen; [1]) did it give?
Answer: The value was 57,0.

Question: And the “Anzahl von Körnern der Ähre im Isolator” value (diploidem Roggen; [1])?
Answer: The value was 0,0.

Question: What about the “Prozentsatz der Sterilität” value (diploidem Roggen; [1]) of the same molecule?
Answer: The value was 100,0%.

Question: And the “Prozentsatz des Ansetzens von Körnern bei freier Bestäubung” value (diploidem Roggen; [1])?
Answer: The value was 90,8%.

Question: Which “Anzahl von Körnern der Ähre bei freier Bestäubung” value (diploidem Roggen; [2]) does the source give for CCCCC(CC)COC(=O)CCCCSCCCCC(=O)OCC(CC)CCCC (centres unmarked) [Beispiel 40, Bis(2-äthylhexyläther) der δ, δ' -Thiodivaleriansäure] here?
Answer: The value was 52,9.

Question: And the “Anzahl von Körnern der Ähre im Isolator” value (diploidem Roggen; [2])?
Answer: The value was 0,0.

Question: And the “Prozentsatz der Sterilität” value (diploidem Roggen; [2])?
Answer: Its value is 100,0%.

Question: And the “Prozentsatz des Ansetzens von Körnern bei freier Bestäubung” value (diploidem Roggen; [2])?
Answer: Its value is 96,9%.

Question: With CCCCC(CC)COC(=O)CCCCSCCCCC(=O)OCC(CC)CCCC (centres unmarked) [Beispiel 8] as the molecule, how does the “Anzahl von Körnern der Ähre bei freier Bestäubung” value (Winterweizen; [3]) read?
Answer: Its value is 36,1.

Question: And the “Anzahl von Körnern der Ähre im Isolator” value (Winterweizen; [3])?
Answer: The value was 0,0.

Question: And the “Prozentsatz der Sterilität” value (Winterweizen; [3])?
Answer: The value was 100,0%.

Question: What about the “Prozentsatz des Ansetzens von Körnern bei freier Bestäubung” value (Winterweizen; [3]) of the same molecule?
Answer: The value was 87,6%.

Question: With O=C([O-])CCCCSCCCCC(=O)[O-].[Na+].[Na+] [Beispiel 2, Natriumsalz der δ, δ'-Thiodivaleriansäure] as the molecule, how does the “Anzahl von Körnern der Ähre bei freier Bestäubung” value (Winterweizen; [3]) read?
Answer: Its value is 35,3.

Question: What about the “Anzahl von Körnern der Ähre im Isolator” value (Winterweizen; [3]) of the same molecule?
Answer: The value was 0,3.

Question: And the “Prozentsatz der Sterilität” value (Winterweizen; [3])?
Answer: The value was 99,3%.

Question: What about the “Prozentsatz des Ansetzens von Körnern bei freier Bestäubung” value (Winterweizen; [3]) of the same molecule?
Answer: Its value is 85,7%.

Question: Which “Anzahl von Körnern der Ähre bei freier Bestäubung” value (Winterweizen; [3]) does the source give for O=C(O)CCCCS(=O)(=O)CCCCC(=O)O [Beispiel 3, δ, δ' -Sulfonyldivaleriansäure] here?
Answer: The value was 37,2.

Question: What about the “Anzahl von Körnern der Ähre im Isolator” value (Winterweizen; [3]) of the same molecule?
Answer: Its value is 0,0.

Question: And the “Prozentsatz der Sterilität” value (Winterweizen; [3])?
Answer: Its value is 100,0%.

Question: What about the “Prozentsatz des Ansetzens von Körnern bei freier Bestäubung” value (Winterweizen; [3]) of the same molecule?
Answer: The value was 90,3%.

Question: How did the “Anzahl von Körnern der Ähre bei freier Bestäubung” value (Winterweizen; Sorte Korall, 12 kg/ha) turn out when CCCCC(CC)COC(=O)CCCCSCCCCC(=O)OCC(CC)CCCC (centres unmarked) [Beispiel 9, Bis(2-äthylhexyläther) der δ, δ' --Thiodivaleriansäure] was run?
Answer: The value was 30,8.

Question: And the “Anzahl von Körnern der Ähre im Isolator” value (Winterweizen; Sorte Korall, 12 kg/ha)?
Answer: The value was 0,0.

Question: What about the “Prozentsatz der Sterilität” value (Winterweizen; Sorte Korall, 12 kg/ha) of the same molecule?
Answer: The value was 100,0%.

Question: And the “Prozentsatz des Ansetzens von Körnern bei freier Bestäubung” value (Winterweizen; Sorte Korall, 12 kg/ha)?
Answer: The value was 95,1%.

Question: Which results are given for O=C(O)CCCCSCCCCC(=O)O [Beispiel I, δ, δ' -Thiodivaleriansäure]?
Answer: Anzahl von Körnern der Ähre bei freier Bestäubung (Winterweizen; [3]): 37,0; Anzahl von Körnern der Ähre im Isolator (Winterweizen; [3]): 0,5; Prozentsatz der Sterilität (Winterweizen; [3]): 98,8%; Prozentsatz des Ansetzens von Körnern bei freier Bestäubung (Winterweizen; [3]): 89,8%

Question: Which results are given for CCCCC(CC)COC(=O)CCCCSCCCCC(=O)OCC(CC)CCCC (centres unmarked) [Beispiel 13, Bis(2-äthylhexyläther) der δ, δ' -Thiodivaleriansäure]?
Answer: Anzahl von Körnern der Ähre bei freier Bestäubung (Winterweizen; Gordeiforme 12303, 16 kg/ha): 25,3; Anzahl von Körnern der Ähre im Isolator (Winterweizen; Gordeiforme 12303, 16 kg/ha): 0,0; Prozentsatz der Sterilität (Winterweizen; Gordeiforme 12303, 16 kg/ha): 100,0%; Prozentsatz des Ansetzens von Körnern bei freier Bestäubung (Winterweizen; Gordeiforme 12303, 16 kg/ha): 86,9%

Question: With O=C(O)CCCCS(=O)(=O)CCCCC(=O)O [Beispiel 14, δ, δ' -Sulfonyldivaleriansäure] as the molecule, how does the “Anzahl von Körnern der Ähre bei freier Bestäubung” value (Winterweizen; Gordeiforme 12303, 16 kg/ha) read?
Answer: The value was 23,6.

Question: What about the “Anzahl von Körnern der Ähre im Isolator” value (Winterweizen; Gordeiforme 12303, 16 kg/ha) of the same molecule?
Answer: Its value is 0,1.

Question: What about the “Prozentsatz der Sterilität” value (Winterweizen; Gordeiforme 12303, 16 kg/ha) of the same molecule?
Answer: Its value is 99,7%.

Question: What about the “Prozentsatz des Ansetzens von Körnern bei freier Bestäubung” value (Winterweizen; Gordeiforme 12303, 16 kg/ha) of the same molecule?
Answer: Its value is 81,1%.

Question: For “Bis(di--n-butyläther) der δ, δ' -Thiodivalerianqäure [Beispiel 11]”, which “Anzahl von Körnern der Ähre bei freier Bestäubung” value (Winterweizen; Sorte Korall, 12 kg/ha) is on record?
Answer: The value was 30,2.

Question: What about the “Anzahl von Körnern der Ähre im Isolator” value (Winterweizen; Sorte Korall, 12 kg/ha) of the same molecule?
Answer: The value was 0,1.

Question: And the “Prozentsatz der Sterilität” value (Winterweizen; Sorte Korall, 12 kg/ha)?
Answer: Its value is 99,5%.

Question: What about the “Prozentsatz des Ansetzens von Körnern bei freier Bestäubung” value (Winterweizen; Sorte Korall, 12 kg/ha) of the same molecule?
Answer: Its value is 93,2%.
